The text below walks through data of patent US20100234379A1, “Dual modulation of endocannabinoid transport and fatty-acid amide hydrolase for treatment of excitotoxicity” (priority 2005, published 2010).

Usually melting point stands for the temperature, or range, at which the solid turns liquid.

The test system of data set [1] is ERK and FAK (pERK2, pFAK). The data set can be described thus: Activation of ERK and FAK (CB1 signaling) in hippocampal slice cultures, immunoblot. The class given is cell-based, rat. A general note: In western blotting, separated proteins are transferred to a membrane and probed.
Experimental: A: Untreated slices were used to determine basal antigen levels (lane 1), while other slices were exposed to the CB1 agonist R-methanandamide (A) in the absence (lane 2) or presence of the antagonist H (lane 3). B: Integrated optical densities for pERK2 (mean±SEM) were determined by image analysis (ANOVA: P=0.014). C: Treatment groups include control slices (lane 1) and slices treated with the FAAH inhibitor B (lane 2), the transporter inhibitor C (lane 3), the B/C combination (lane 4), or B/C with 20 μM F (lane 5). D: Image analysis data for pERK2 are shown (ANOVA: P=0.015).
Hippocampal slice cultures. Sprague-Dawley rats (Charles River Laboratories; Wilmington, Mass.) were housed following guidelines from National Institutes of Health. […] Slices were maintained in culture for a 15-20-day maturation period before experiments were initiated. Activation of extracellular signal regulated-kinase (ERK) and focal adhesion kinase (FAK). […] Other slices were treated with 100-500 nM B, 10-50 μM C, or a combination of the two in the absence or presence of either H or F (Cal-Biochem). […] Integrated optical density of the bands was determined at high resolution with BIOQUANT software (R & M Biometrics, Nashville, Tenn.). […]
Data set [2] concerns hippocampal slice cultures. The data set can be described thus: In vitro excitotoxicity: AMPA insult in cultured hippocampal slices, immunoblot for BDPN and GluR1. As to conditions: 100 μM AMPA 20 min, drug post-insult, 24 h; B/C 0.5 μM and 50 μM.
Experimental: Hippocampal slice cultures were infused with an excitotoxic level of AMPA for 20 min, followed by a 10-min washout period. […] The slices were harvested 24 h post-insult in groups of 6-8 each, along with untreated sister cultures, and assessed by immunoblotting for calpain-mediated spectrin breakdown product BDPN (A, C) and the postsynaptic marker GluR1 (B, D). Representative antigen staining is shown with a protein load control (con) from the same blots. Graphs contain integrated optical densities (mean±SEM) as determined by image analysis.
Chemicals and antibodies. […] Glutamatergic ligands and antagonists were obtained from Tocris (Ellisville, Mo.). […] Hippocampal slice cultures. Sprague-Dawley rats (Charles River Laboratories; Wilmington, Mass.) were housed following guidelines from National Institutes of Health. […] Slices were maintained in culture for a 15-20-day maturation period before experiments were initiated. […] Integrated optical density of the bands was determined at high resolution with BIOQUANT software (R & M Biometrics, Nashville, Tenn.). […] At such time, slices were rapidly harvested, homogenized in lysis buffer, and analyzed by immunoblot for BDPN, GluR1, and protein load control.
In data set [3] the test system is AMPA-injected dorsal hippocampus of adult Sprague-Dawley rats. Type of data set: in vivo, rat.
Text: Groups of adult rats received a 2.5-μl unilateral injection into the dorsal hippocampus, containing vehicle only (veh; n=10), 63 nmol AMPA (insult; n=19), or AMPA co-administered with 250 nmol of the CB1 agonist A (n=12). At 4-7 days post-injection, brains were rapidly removed under ice-cold conditions containing protease inhibitors, and the ipsilateral dorsal hippocampus dissected for immunoblotting. Spectrin breakdown product BDPN, postsynaptic marker GluR1, presynaptic marker synapsin II, and actin were assessed on single immunoblots (FIG. 3A).
At 4-7 days post-injection, ipsilateral dorsal hippocampal tissue was rapidly dissected using ice-cold buffers with protease inhibitors.
Blots were routinely stained for a protein load control (e.g., actin). Anti-IgG-alkaline phosphatase conjugates were used for secondary antibody incubation and development of immunoreactive species was terminated prior to maximum intensity in order to avoid saturation. Integrated optical density of the bands was determined at high resolution with BIOQUANT software (R & M Biometrics, Nashville, Tenn.). […] In vivo excitotoxicity. […] Using stereotaxic coordinates (−5.3 mm Bregma, −2.5 mm lateral), a 2.5-μl injection was administered to the right dorsal hippocampus (−2.9 mm from skull surface). Vehicle consisted of 50% DMSO in a phosphate-buffered saline solution. The insult included 63 nmol AMPA excitotoxin in the absence or presence of A (250 nmol) or the drug combination of B (0.75 nmol) and C (75 nmol). Following the injections, wounds were sutured and animals placed back in their home cage for recovery. After 4-7 days, brains were rapidly removed and either fixed in 4% paraformaldehyde or the dorsal hippocampal tissue dissected and snap frozen in dry ice.

`O=S(=O)(F)CCCCCCCc1ccc(OCc2ccccc2)cc1` showed a melting point of 35 to 38 °C.
Same read-out and setting: next, `O=S(=O)(F)CCCCCc1ccc(OCc2ccccc2)cc1`: 66 to 68 °C; `O=S(=O)(F)CCCCCCCc1ccc(O)cc1`: 47 to 51 °C.
The same measure, in the same setting: the result for `O=S(=O)(F)CCCCCc1ccc(O)cc1` reads 32 to 35 °C; that for `O=S(=O)(F)CCCCOc1ccccc1`, 74 to 76 °C; that for `COS(=O)(=O)CCCCCCCc1ccc(OCc2ccccc2)cc1`, 57 to 59 °C.
On the same count and under the same terms, the result for `O=C(CCCOc1ccc(OCc2ccccc2)cc1)C(F)(F)F` reads 59 to 61 °C.
Take `O=C(CCCCCOc1ccccc1OCc1ccccc1)C(F)(F)F`: the melting point lay within 31 to 32 °C.
Same read-out and setting: the result for `O=C(CCCCOc1ccccc1)C(F)(F)F` reads 50 to 51 °C; that for `O=C(CCCCOc1ccc(OCc2ccccc2)cc1)C(F)(F)F`, 95.5 to 96 °C.
The same measure, in the same setting: next, `O=C(CCCCCOc1ccc(OCc2ccccc2)cc1)C(F)(F)F`: 59 to 60 °C.
On the same count and under the same terms, next, `O=C(CCCCCCOc1ccc(OCc2ccccc2)cc1)C(F)(F)F`: 82 to 83 °C; `O=C(CCCOc1ccccc1OCc1ccccc1)C(F)(F)F`: 50 to 51 °C.
Compound `O=C(CCCCOc1ccc(O)cc1)C(F)(F)F` displayed a melting point of 63 to 64 °C.
On the same count and under the same terms, next, `O=C(CCCCCCOc1ccc(O)cc1)C(F)(F)F`: 61 to 62 °C; `O=C(CCCCOc1ccccc1O)C(F)(F)F`: 51 to 52 °C.
Same read-out and setting: next, `O=C(NCCCc1ccccc1)NCc1ccccn1`: 89 to 90 °C; `O=C(NCCCc1ccccc1)Nc1ccccn1`: 127 to 128 °C.
The same measure, in the same setting: next, `Cc1nnc(C(=O)CCCCCCOc2ccccc2)o1`: 75 to 77 °C; `Cc1nnc(C(=O)CCCCCCOc2ccc(OCc3ccccc3)cc2)o1`: 118 to 120 °C; `Cc1nnc(C(=O)CCCCCCOc2ccc(O)cc2)o1`: 134 to 135 °C.
With `O=C1c2ccccc2S(=O)(=O)N1CCCCOc1ccccc1`, the melting point was in the range of 92 to 94 °C.
Same read-out and setting: next, `O=C1c2ccccc2S(=O)(=O)N1CCCCOc1ccc(OCc2ccccc2)cc1`: 82 to 84 °C.
Same read-out and setting: the result for `O=C1c2ccccc2S(=O)(=O)N1CCCCOc1ccc(O)cc1` reads 107 to 109 °C; that for `Oc1cccc(OCCCC(O)(O)C(F)(F)F)c1` (hydrate or solvate), 76 to 77 °C.
For the compound `CCCCC/C=C\C/C=C\C/C=C\C/C=C\CCCC(=O)N[C@H](C)CO` [A, R-methanandamide], in data set [1] (slices treated 30 min, A 10-50 μM, 100 nM B and 10 μM C applied individually, B/C combination), the “activation of ERK and FAK (pERK2, pFAK over basal levels)” value is “results in the activation of extracellular signal regulated-kinase (ERK) as well as focal adhesion kinase (FAK)”. Moreover, the “reduction of cytoskeletal damage (calpain-mediated spectrin breakdown product BDPN)” value in data set [2] is recorded as 72%. Also, the “protection of postsynaptic GluR1 levels (reduction of GluR1 decline), average” value in data set [3] (co-injected with 63 nmol AMPA, 4-7 days post-injection) was 58%. Besides, in data set [3] (co-injected with 63 nmol AMPA, A 250 nmol, B 0.75 nmol and C 75 nmol), the “reduction of spectrin BDPN evident 4-7 days post-insult” value worked out at 78%. Moreover, the “protection of presynaptic markers (synapsin II, synaptophysin)” value in data set [3] (co-injected with AMPA, 4-7 days) is on record as “protected by a similar level”.
Take `Cc1c(C(=O)NN2CCOCC2)nn(-c2ccc(Cl)cc2Cl)c1-c1ccc(I)cc1` [H]: in data set [1] (H 10 μM), the “prevention of the effects of agonist treatment and of B/C potentiation on ERK/FAK activation by CB1 antagonist” value is on record as “prevented”.
